Laboratory results reported in the NIST ThermoML archive (doi:10.1021/acs.jced.8b00132).
Several values for one entry are separate records, joined by “and”; a condition that tells them apart may be missing. Equal entries are not always repeated.

O=C(C(F)(F)C(F)(F)F)C(F)(C(F)(F)F)C(F)(F)F [dodecafluoro-2-methylpentan-3-one]
Conditions	thermal conductivity
333.01 K, 108 kPa, Liquid, transient hot wire	0.05128 W/m/K and 0.05126 W/m/K
333.21 K, 69192 kPa, Liquid, transient hot wire	0.07561 W/m/K
333.22 K, 69183 kPa, Liquid, transient hot wire	0.07544 W/m/K
333.25 K, 28069 kPa, Liquid, transient hot wire	0.06356 W/m/K
333.26 K, 28068 kPa, Liquid, transient hot wire	0.06353 W/m/K
333.28 K, 57706 kPa, Liquid, transient hot wire	0.07259 W/m/K
333.29 K, 57707 kPa, Liquid, transient hot wire	0.07259 W/m/K
333.34 K, 3947 kPa, Liquid, transient hot wire	0.05333 W/m/K
333.35 K, 3945 kPa, Liquid, transient hot wire	0.0533 W/m/K
333.35 K, 20435 kPa, Liquid, transient hot wire	0.06088 W/m/K
333.36 K, 20438 kPa, Liquid, transient hot wire	0.06085 W/m/K
333.37 K, 45549 kPa, Liquid, transient hot wire	0.06924 W/m/K
333.39 K, 45558 kPa, Liquid, transient hot wire	0.06943 W/m/K
333.46 K, 14103 kPa, Liquid, transient hot wire	0.05826 W/m/K
333.47 K, 14107 kPa, Liquid, transient hot wire	0.05827 W/m/K
333.47 K, 36549 kPa, Liquid, transient hot wire	0.06656 W/m/K
333.48 K, 36550 kPa, Liquid, transient hot wire	0.0665 W/m/K
333.58 K, 8568 kPa, Liquid, transient hot wire	0.0556 W/m/K
333.58 K, 8574 kPa, Liquid, transient hot wire	0.05562 W/m/K
333.67 K, 231 kPa, Liquid, transient hot wire	0.05113 W/m/K
333.67 K, 232 kPa, Liquid, transient hot wire	0.05114 W/m/K
333.7 K, 108 kPa, Liquid, transient hot wire	0.05109 W/m/K
333.71 K, 108 kPa, Liquid, transient hot wire	0.051 W/m/K
341.75 K, 117 kPa, Gas, transient hot wire	0.01428 W/m/K
341.75 K, 153 kPa, Gas, transient hot wire	0.01409 W/m/K
341.8 K, 117 kPa, Gas, transient hot wire	0.01432 W/m/K
341.81 K, 154 kPa, Gas, transient hot wire	0.01416 W/m/K
341.86 K, 61 kPa, Gas, transient hot wire	0.01468 W/m/K
341.91 K, 62 kPa, Gas, transient hot wire	0.01468 W/m/K
342.04 K, 153 kPa, Gas, transient hot wire	0.01411 W/m/K
342.05 K, 117 kPa, Gas, transient hot wire	0.01436 W/m/K
342.11 K, 116 kPa, Gas, transient hot wire	0.01434 W/m/K
342.11 K, 153 kPa, Gas, transient hot wire	0.0142 W/m/K
342.19 K, 61 kPa, Gas, transient hot wire	0.01474 W/m/K
342.23 K, 61 kPa, Gas, transient hot wire	0.01466 W/m/K
342.38 K, 153 kPa, Gas, transient hot wire	0.0142 W/m/K
342.39 K, 115 kPa, Gas, transient hot wire	0.01437 W/m/K
342.44 K, 116 kPa, Gas, transient hot wire	0.01444 W/m/K
342.44 K, 153 kPa, Gas, transient hot wire	0.01429 W/m/K
342.56 K, 60 kPa, Gas, transient hot wire	0.01477 W/m/K
342.59 K, 61 kPa, Gas, transient hot wire	0.01463 W/m/K
342.74 K, 153 kPa, Gas, transient hot wire	0.01422 W/m/K
342.76 K, 115 kPa, Gas, transient hot wire	0.0144 W/m/K
342.8 K, 153 kPa, Gas, transient hot wire	0.01428 W/m/K
342.81 K, 116 kPa, Gas, transient hot wire	0.01448 W/m/K
342.95 K, 60 kPa, Gas, transient hot wire	0.01472 W/m/K
342.98 K, 61 kPa, Gas, transient hot wire	0.01475 W/m/K
343.11 K, 153 kPa, Gas, transient hot wire	0.01428 W/m/K
343.15 K, 116 kPa, Gas, transient hot wire	0.01455 W/m/K
343.18 K, 153 kPa, Gas, transient hot wire	0.01436 W/m/K
343.2 K, 116 kPa, Gas, transient hot wire	0.0145 W/m/K
343.36 K, 60 kPa, Gas, transient hot wire	0.0147 W/m/K
343.39 K, 61 kPa, Gas, transient hot wire	0.01474 W/m/K
343.88 K, 192 kPa, Gas, hot wire	0.01563 W/m/K
343.89 K, 192 kPa, Gas, hot wire	0.01557 W/m/K
343.9 K, 170 kPa, Gas, hot wire	0.01524 W/m/K and 0.0152 W/m/K
343.91 K, 134 kPa, Gas, hot wire	0.01511 W/m/K and 0.01509 W/m/K
343.94 K, 82 kPa, Gas, hot wire	0.0148 W/m/K and 0.01481 W/m/K
343.99 K, 26 kPa, Gas, hot wire	0.01441 W/m/K
344 K, 26 kPa, Gas, hot wire	0.01439 W/m/K
344.02 K, 192 kPa, Gas, hot wire	0.01569 W/m/K
344.03 K, 192 kPa, Gas, hot wire	0.01571 W/m/K
344.04 K, 170 kPa, Gas, hot wire	0.01532 W/m/K
344.06 K, 134 kPa, Gas, hot wire	0.01505 W/m/K
344.07 K, 134 kPa, Gas, hot wire	0.01503 W/m/K
344.1 K, 82 kPa, Gas, hot wire	0.01476 W/m/K
344.1 K, 83 kPa, Gas, hot wire	0.01479 W/m/K
344.14 K, 26 kPa, Gas, hot wire	0.01446 W/m/K and 0.01445 W/m/K
344.17 K, 191 kPa, Gas, hot wire	0.01575 W/m/K and 0.01573 W/m/K
344.19 K, 169 kPa, Gas, hot wire	0.01545 W/m/K and 0.01542 W/m/K
344.21 K, 133 kPa, Gas, hot wire	0.01513 W/m/K
344.25 K, 83 kPa, Gas, hot wire	0.0148 W/m/K
344.26 K, 83 kPa, Gas, hot wire	0.01479 W/m/K
344.31 K, 26 kPa, Gas, hot wire	0.01448 W/m/K and 0.01449 W/m/K
344.31 K, 191 kPa, Gas, hot wire	0.01589 W/m/K
344.32 K, 191 kPa, Gas, hot wire	0.01586 W/m/K
344.35 K, 169 kPa, Gas, hot wire	0.01551 W/m/K and 0.01555 W/m/K
344.38 K, 132 kPa, Gas, hot wire	0.01516 W/m/K
344.38 K, 133 kPa, Gas, hot wire	0.01519 W/m/K
344.43 K, 83 kPa, Gas, hot wire	0.0148 W/m/K
344.44 K, 83 kPa, Gas, hot wire	0.01478 W/m/K
344.47 K, 191 kPa, Gas, hot wire	0.01601 W/m/K and 0.01602 W/m/K
344.49 K, 26 kPa, Gas, hot wire	0.01446 W/m/K and 0.01447 W/m/K
344.51 K, 169 kPa, Gas, hot wire	0.01563 W/m/K
